“And” between values parts separate entries of the source, which are not always exact repeats. Equal entries are not always repeated. Inconclusive results and toxic doses are left out.
Tested on: L1210 leukemia ip in BDF1 mice, survival T/C
Experiment: NCI In Vivo Anticancer Drug Screen. Data for tumor model L1210 Leukemia (intraperitoneal) in B6D2F1 (BDF1) mice
Details: endpoint: mean survival time, higher = longer survival
Procedure, shortened: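 Each compound was tested against a transplantable tumor grown in mice. The endpoint was survival, with treated animals benchmarked against vehicle controls as a simple ratio.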

O=NN(CCCl)C(=O)NC1CC2CCC1C2 (configuration not stated)
T/C (dose: 1.04 mg/kg/injection, schedule: Q#B X Z (ip), vehicle: other): 96 % of control
T/C (dose: 2.0 mg/kg/injection, schedule: Q01DX001 (ip), vehicle: carboxymethylcellulose (CMC)): 112 % of control
T/C (dose: 3.1 mg/kg/injection, schedule: Q01DX015 (ip), vehicle: other): 114 % of control
T/C (dose: 3.12 mg/kg/injection, schedule: Q03HX008 (oral), vehicle: carboxymethylcellulose (CMC)): 188 % of control
T/C (dose: 3.12 mg/kg/injection, schedule: Q03HX024 (oral), vehicle: carboxymethylcellulose (CMC)): 261 % of control
T/C (dose: 4.0 mg/kg/injection, schedule: Q01DX001 (ip), vehicle: carboxymethylcellulose (CMC)): 115 % of control
T/C (dose: 4.9 mg/kg/injection, schedule: Q01DX015 (ip), vehicle: other): 210 % of control
T/C (dose: 6.25 mg/kg/injection, schedule: Q01DX001 (im), vehicle: other): 112 % of control
T/C (dose: 6.25 mg/kg/injection, schedule: Q01DX001 (ip), vehicle: other): 109 % of control and 118 % of control
T/C (dose: 6.25 mg/kg/injection, schedule: Q01DX001 (ip), vehicle: saline): 98 % of control and 101 % of control
T/C (dose: 6.25 mg/kg/injection, schedule: Q01DX001 (iv), vehicle: other): 105 % of control
T/C (dose: 6.25 mg/kg/injection, schedule: Q01DX001 (oral), vehicle: other): 100 % of control
T/C (dose: 6.25 mg/kg/injection, schedule: Q01DX001 (sc), vehicle: other): 114 % of control
T/C (dose: 6.25 mg/kg/injection, schedule: Q03DX Z (ip), vehicle: other): 156 % of control
T/C (dose: 6.25 mg/kg/injection, schedule: Q03HX008 (oral), vehicle: carboxymethylcellulose (CMC)): 188 % of control
T/C (dose: 6.25 mg/kg/injection, schedule: Q07DX Z (ip), vehicle: other): 121 % of control
T/C (dose: 8.0 mg/kg/injection, schedule: Q01DX001 (ip), vehicle: carboxymethylcellulose (CMC)): 124 % of control
T/C (dose: 8.0 mg/kg/injection, schedule: Q01DX009 (ip), vehicle: carboxymethylcellulose (CMC)): 227 % of control
T/C (dose: 8.0 mg/kg/injection, schedule: Q01DX009 (oral), vehicle: carboxymethylcellulose (CMC)): 227 % of control
T/C (dose: 8.0 mg/kg/injection, schedule: Q04DX003 (ip), vehicle: carboxymethylcellulose (CMC)): 150 % of control
T/C (dose: 8.33 mg/kg/injection, schedule: Q#B X Z (ip), vehicle: other): 105 % of control
T/C (dose: 9.6 mg/kg/injection, schedule: Q## X032 (ip), vehicle: other): 150 % of control
T/C (dose: 12.0 mg/kg/injection, schedule: Q01DX001 (ip), vehicle: carboxymethylcellulose (CMC)): 124 % of control
T/C (dose: 12.5 mg/kg/injection, schedule: Q01DX001 (ip), vehicle: other): 150 % of control
T/C (dose: 12.5 mg/kg/injection, schedule: Q01DX001 (ip), vehicle: saline): 103 % of control and 106 % of control
T/C (dose: 12.5 mg/kg/injection, schedule: Q01DX001 (sc), vehicle: other): 151 % of control
T/C (dose: 12.5 mg/kg/injection, schedule: Q03DX Z (ip), vehicle: other): 235 % of control
T/C (dose: 12.5 mg/kg/injection, schedule: Q04DX003 (oral), vehicle: carboxymethylcellulose (CMC)): 177 % of control
T/C (dose: 12.5 mg/kg/injection, schedule: Q07DX Z (ip), vehicle: other): 179 % of control
T/C (dose: 14.5 mg/kg/injection, schedule: Q## X001 (ip), vehicle: other): 172 % of control
T/C (dose: 15.0 mg/kg/injection, schedule: Q## X032 (ip), vehicle: other): 158 % of control
T/C (dose: 16.0 mg/kg/injection, schedule: Q01DX001 (ip), vehicle: carboxymethylcellulose (CMC)): 179 % of control
T/C (dose: 16.0 mg/kg/injection, schedule: Q01DX015 (ip), vehicle: other): 261 % of control
T/C (dose: 16.0 mg/kg/injection, schedule: Q04DX003 (ip), vehicle: carboxymethylcellulose (CMC)): 193 % of control
T/C (dose: 25.0 mg/kg/injection, schedule: Q01DX001 (im), vehicle: other): 214 % of control
T/C (dose: 25.0 mg/kg/injection, schedule: Q01DX001 (ip), vehicle: carboxymethylcellulose (CMC)): 196 % of control
T/C (dose: 25.0 mg/kg/injection, schedule: Q01DX001 (ip), vehicle: other): 220 % of control
T/C (dose: 25.0 mg/kg/injection, schedule: Q01DX001 (oral), vehicle: other): 210 % of control
T/C (dose: 25.0 mg/kg/injection, schedule: Q01DX001 (sc), vehicle: other): 227 % of control
T/C (dose: 25.0 mg/kg/injection, schedule: Q03HX008 (ip), vehicle: carboxymethylcellulose (CMC)): 107 % of control
T/C (dose: 25.0 mg/kg/injection, schedule: Q03HX008 (oral), vehicle: carboxymethylcellulose (CMC)): 155 % of control
T/C (dose: 25.0 mg/kg/injection, schedule: Q03HX024 (oral), vehicle: carboxymethylcellulose (CMC)): 150 % of control
T/C (dose: 25.0 mg/kg/injection, schedule: Q03HX040 (ip), vehicle: carboxymethylcellulose (CMC)): 114 % of control
T/C (dose: 25.0 mg/kg/injection, schedule: Q04DX005 (ip), vehicle: carboxymethylcellulose (CMC)): 186 % of control
T/C (dose: 26.0 mg/kg/injection, schedule: Q01DX001 (ip), vehicle: carboxymethylcellulose (CMC)): 162 % of control
T/C (dose: 29.0 mg/kg/injection, schedule: Q01DX001 (ip), vehicle: other): 180 % of control and 240 % of control
T/C (dose: 29.25 mg/kg/injection, schedule: Q01DX001 (oral), vehicle: other): 156 % of control and 160 % of control

From PubChem BioAssay AID248 (DTP/NCI, 2004)
